Data reported in US7122573B2, “Analogs of green tea polyphenols as chemotherapeutic and chemopreventive agents” (SRI International, priority 2002, dated 2006).
Blank lines part the entries; values can stand above or below the compound they belong to.

How the values were obtained:
Assay type in all cases: cell-based
[1] = test system: MCF-7 (ER+); test: Growth inhibition assay (MTT, 8 days) in MCF-7 breast cancer cells
Protocol: (§1) Compounds of the invention were tested for their ability to inhibit growth in two breast cancer cell lines, MCF-7 (ER+) and MDA-MB-231 (ER−).
(§2) The growth inhibition assays were conducted using routine methods. Briefly, the cells were seeded in 24-well plates at a density of 2000 cells per well in 200 μL of […] growth medium. To each well was added 10 μL of DMSO containing the dissolved test compound; final DMSO concentration in each well was not more than 0.5%. Each test compound was assayed at concentrations of 0.4, 2, 10, and 50 μM. The plates were incubated for eight days, with the media and test solutions replaced every third day. On Day 8, the viable cells were measured by the MTT assay, as described in Mosmann et al. (1983), “Rapid Colorimetric Assay for Cellular Growth and Survival: Application to Proliferation and Cytotoxicity,” J. Immunol. Method. 65:55–63. The optical density at 575 nm of each test well was measured and compared to that for control wells, and the data used to calculate the percentage of growth inhibition at different concentrations. The IC50 value (the concentration of growth inhibitor that results in 50% growth inhibition of the cells in culture relative to control cells not exposed to any growth inhibitor) was determined by plotting dose-response curves.
(§3) The calculated IC50 values are set forth in Table 1, with the results representing the average of at least two experiments conducted for each compound at each of the four concentrations.

[2] = test system: human lung tumor cells (A427); test: Concurrent assay for cell survival; conditions: for surviving cells: highest concentration tested (25 μM)
Protocol: (§4) An anchorage-independent growth inhibition assay was performed as described in Korytynski, et al. (1996) “The development of an anchorage-independence assay using human lung tumor cells to screen potential chemopreventive agents,” Anticancer Res. 16, 1091–1094; and Sharma, et al. (1997) “The anchorage-independent assay as a screening tool to identify potential chemopreventive agents,” Methods Cell Sci. 19, 9–12. The assay measures the inhibition of colony formation of human lung tumor cells (A427) cells grown in soft agar. In this assay, A427 cells were grown in the presence of the test agent, SR 13196, EGCG or 13-cis-RA Control samples were tested using an equivalent volume of DMSO alone. A concurrent assay for cell survival was also performed.

[3] = test system: MDA-MB-231 (ER−); test: Growth inhibition assay (MTT, 8 days) in MDA-MB-231 breast cancer cells
Protocol: as §1, §2, §3

[4] = test system: human lung tumor cells (A427); test: Anchorage-independent growth inhibition assay (colony formation in soft agar)
Protocol: as §4

[5] = Table 1, MTT on Day 8, average of at least two experiments
[6] = Table 2, procedures repeated with additional compounds
[7] = Homo sapiens, MCF7, Table 2, procedures repeated with additional compounds
[8] = Homo sapiens, MDA-MB-231, Table 2, procedures repeated with additional compounds

IC50 ([1]; Homo sapiens, MCF7, 192 h, Table 1, MTT on Day 8, average of at least two experiments): 11.1 µM
IC50 ([3]; Homo sapiens, MDA-MB-231, 192 h, Table 1, MTT on Day 8, average of at least two experiments): 12.7 µM
Compound: COc1cc([C@H]2Oc3cc(O)cc(O)c3C[C@H]2OC(=O)c2cc(C)c(O)c(C)c2)cc(OC)c1OC (relative stereo) [SR 13196]
Surviving Fraction ([2]; 1.56 μM): 0.71
Surviving Fraction ([2]; 3.12 μM): 0.41
Surviving Fraction ([2]; 6.25 μM): 0.17
Surviving Fraction ([2]; 12.5 μM): 0.12
Surviving Fraction ([2]; 25 μM): 0.11
surviving cells [2]: 11%
Observed Colonies ([4]; 1.56 μM): 268
Observed Colonies ([4]; 3.12 μM): 108
Observed Colonies ([4]; 6.25 μM): 38
Observed Colonies ([4]; 12.5 μM): 28
Observed Colonies ([4]; 25 μM): 8

Compound: CC1=C(/C=C/C(C)=C/C=C/C(C)=C\C(=O)O)C(C)(C)CCC1 [13-cis-RA]
Surviving Fraction ([2]; 1.56 μM): 0.85
Surviving Fraction ([2]; 3.12 μM): 0.82
Surviving Fraction ([2]; 6.25 μM): 0.83
Surviving Fraction ([2]; 12.5 μM): 0.74
Surviving Fraction ([2]; 25 μM): 0.68
surviving cells [2]: 68%
% Inhibition (colony formation) ([4]; 1.56 μM): 8%
Observed Colonies ([4]; 1.56 μM): 310
% Inhibition (colony formation) ([4]; 3.12 μM): 16%
Observed Colonies ([4]; 3.12 μM): 269
% Inhibition (colony formation) ([4]; 6.25 μM): 28%
Observed Colonies ([4]; 6.25 μM): 206
% Inhibition (colony formation) ([4]; 12.5 μM): 35%
Observed Colonies ([4]; 12.5 μM): 179
% Inhibition (colony formation) ([4]; 25 μM): 43%
Observed Colonies ([4]; 25 μM): 142

Compound: Oc1cc(O)c2c(c1)O[C@H](c1cc(O)c(O)c(O)c1)[C@H](O)C2 [EGC (2,3-cis), (−)-epigallocatechin]
IC50 [1, 5]: 29.8 µM
IC50 [3, 5]: 27.3 µM

Compound: O=C(O[C@@H]1Cc2c(O)cc(O)cc2O[C@@H]1c1cc(O)c(O)c(O)c1)c1cc(O)c(O)c(O)c1 [EGCG, (−)-epigallocatechin-3-gallate]
IC50 [1, 5]: 8.22 µM
IC50 [1, 6]: 16.8 µM
Surviving Fraction ([2]; 1.56 μM): 0.99
Surviving Fraction ([2]; 3.12 μM): 0.98
Surviving Fraction ([2]; 6.25 μM): 0.97
Surviving Fraction ([2]; 12.5 μM): 0.85
Surviving Fraction ([2]; 25 μM): 0.39
surviving cells [2]: 39%
IC50 [3, 5]: 11.9 µM
IC50 [3, 6]: 5.76 µM
% Inhibition (colony formation) ([4]; 1.56 μM): 0%
Observed Colonies ([4]; 1.56 μM): 398
% Inhibition (colony formation) ([4]; 3.12 μM): 19%
Observed Colonies ([4]; 3.12 μM): 310
% Inhibition (colony formation) ([4]; 6.25 μM): 25%
Observed Colonies ([4]; 6.25 μM): 282
% Inhibition (colony formation) ([4]; 12.5 μM): 40%
Observed Colonies ([4]; 12.5 μM): 139
% Inhibition (colony formation) ([4]; 25 μM): 50%
Observed Colonies ([4]; 25 μM): 97

IC50 [1, 7]: 124 µM
IC50 [3, 8]: 55.4 µM
Compound: COc1cc([C@H]2Oc3cc(O)cc(O)c3C[C@H]2OC(=O)c2cc(C)c(O)c(C)c2)cc(OC)c1OC [SR 13197]

IC50 [1, 7]: 58.1 µM
IC50 [3, 8]: 47.9 µM
Compound: COc1cc(OC)c2c(c1)OC(c1cc(O)c(O)c(O)c1)[C@H](OC(=O)c1cc(O)c(O)c(O)c1)C2 (stereo partly drawn) [SR 13198, trans-5,7-DIMETHOXY-2-(3,4,5-TRIHYDROXY-PHENYL)-3,4-DIHYDRO-2H-CHROMAN-3-YL, 3,4,5-TRIHYDROXY-BENZOIC ACID ESTER]

IC50 [1, 7]: 39.6 µM
IC50 [3, 8]: 62.1 µM
Compound: Cc1cc(C)c2c(c1)O[C@H](c1cc(O)c(O)c(O)c1)[C@H](OC(=O)c1cc(O)c(O)c(O)c1)C2 [SR 13912]

IC50 [1, 7]: 16.2 µM
IC50 [3, 8]: 20.1 µM
Compound: Cc1cc(C)c2c(c1)O[C@H](c1cc(O)c(O)c(O)c1)[C@H](OC(=O)c1cc(C)c(O)c(C)c1)C2 [SR 13913]

Compound: trans-5,7-DIMETHYL-2-(3,4,5-TRIHYDROXY-PHENYL)-3,4-DIHYDRO-2H-CHROMAN-3-YL, 3,4,5,-TRIHYDROXY-BENZOIC ACID ESTER [SR 13911]
IC50 [1, 6]: 23.5 µM
IC50 [3, 6]: 42 µM
